{"source": "patent US9696306B2", "about": "“Methods of reducing levels of tau” (The Trustees of Columbia University in the City of New York, priority 2011, dated 2017)", "note": "Structures can show the parent of a compound that is named as a salt.", "data": [{"system": "Aβ40", "experiment": "Screen of NIH clinical collection compounds for reduction of Aβ40 in Tg2576 mES cell derived neurons (Aβ40 ELISA)", "type": "cell-based, mouse", "parameters": "Percent Inhibition: concentration or dose not given beside the values", "details": "Aβ40 in conditioned media vs DMSO control; neurons treated on day 8 after plating for 24 hours", "method": "(§1) In certain embodiments, the inhibitor of the present invention is identified by an assay directed to detecting inhibitors of Aβ40 production. For example, but not by way of limitation, such assays can include assays such as those prepared as follows. First, mouse ES cells isolated from Tg2576 mice are subjected to directed differentiation as previously described. After dissociation of embryoid bodies, neurons are plated in poly-D-lysine and laminin coated 96 well black plates at a density of 1.5×10^5 cells/cm2 which is 45,000 cells/well. Media is changed to N2 containing media after 4 hours and again the next day after plating. Two days after plating, media is changed to B27 containing media which is replaced every 2 days after that. On day 8 after plating the mouse ES derived neurons are treated with the compound of interest. […] In certain embodiments the compounds are incubated with the cells for 24 hours in 150 μl B27 media. In certain embodiments each plate of ES derived neurons is treated with NCC compounds, DMSO (negative control), and the positive controls for Aβ reduction BACE inhibitor IV (Calbiochem) and Compound E. After 24 hours, 100 μl conditioned media can then be removed and frozen at −80° C. until further analysis for Aβ40 content. The remaining cells in 50 μl media can be subjected to cell viability assay CellQuanti Blue (BioAssay Systems). In certain embodiments, conditioned media can be subjected to Aβ40 quantification, e.g., by using Aβ40 ELISA (Invitrogen).\n(§2) Mouse ES cells isolated from. Tg2576 mice were subjected to directed differentiation as previously described. After dissociation of embryoid bodies, neurons were plated in poly-D-lysine and laminin coated 96 well black plates at a density of 1.5×10^5 cells/cm2 which is 45,000 cells/well. Media was changed to N2 containing media after 4 hours and again the next day after plating. Two days after plating, media was changed to B27 containing media which was replaced every 2 days after that. […] Each plate of ES derived neurons was treated with NCC compounds, DMSO (negative control), and the positive controls for Aβ reduction BACE inhibitor IV (Calbiochem) and Compound E. After 24 hours, 100 μl conditioned media was removed and frozen at −80° C. until further analysis for Aβ40 content. The remaining cells in 50 μl media were subjected to cell viability assay CellQuanti Blue (BioAssay Systems). Conditioned media was subjected to Aβ40 quantification using Aβ40 ELISA (Invitrogen). Compounds which lowered Aβ40 levels in the conditioned media were identified as hits if they reduced Aβ40 by 4 standard deviations of the negative control (DMSO) but maintained cell viability. Cell viability was defined by CellQuanti Blue fluorescent signal maintained within two standard deviations of fluorescent signal from the control treated (DMSO) cells. High potency hits were defined by reducing Aβ40 40% or more (signal 60% of DMSO control).\n(§3) Hits were defined as lowering Aβ by 4 standard deviations below the negative control (DMSO) treated condition but maintaining cell viability within 2 standard deviations of control.", "units": {"Percent Inhibition": "%"}, "values": [{"compound": "CN1C2CC(OC(=O)C(CO)c3ccccc3)CC1C1OC12", "note": "(stereo not drawn) [benzeneacetic acid, alpha-(hydroxymethyl)-, 9-methyl-3-oxa-9-azatricyclo[3,3,1,2,4]non-7-yl ester]", "Percent Inhibition": 67}, {"compound": "CN1C(=O)CN=C(c2ccccc2)c2cc(Cl)ccc21", "note": "[diazepam]", "Percent Inhibition": 11}, {"compound": "C[C@@H](N=C(NC#N)Nc1ccncc1)C(C)(C)C", "note": "[pinacicil]", "Percent Inhibition": 17}, {"compound": "Cc1nc2ccccn2c(=O)c1CCN1CCC(C(=O)c2ccc(F)cc2)CC1", "note": "[pirenperone]", "Percent Inhibition": 11}, {"compound": "O=C(O)C(Cl)Cl", "note": "[dichloroacetic acid]", "Percent Inhibition": 11.5}, {"compound": "C=CC1=C(C(=O)O)N2C(=O)[C@@H](NC(=O)/C(=N\\OCC(=O)O)c3csc(N)n3)[C@H]2SC1", "note": "[cefixime]", "Percent Inhibition": 19}, {"compound": "CS(=O)(=O)c1ccc(C2=C(c3ccccc3)C(=O)OC2)cc1", "note": "[rofecoxib]", "Percent Inhibition": 12}, {"compound": "NNCCc1ccccc1", "note": "[phenelzine sulfate]", "Percent Inhibition": 70}, {"compound": "C[C@@H]1C[C@H]2[C@@H]3C[C@H](F)C4=CC(=O)C(Cl)=C[C@]4(C)[C@@]3(F)[C@@H](O)C[C@]2(C)[C@@]1(O)C(=O)CO", "note": "[halometasone]", "Percent Inhibition": 14}, {"compound": "CC[C@H]1OC(=O)[C@H](C)[C@@H](O[C@H]2C[C@@](C)(OC)[C@@H](O)[C@H](C)O2)[C@H](C)[C@@H](O[C@@H]2O[C@H](C)C[C@H](N(C)C)[C@H]2O)[C@](C)(OC)C[C@@H](C)C(=O)[C@H](C)[C@@H](O)[C@]1(C)O", "note": "[clarithromycin]", "Percent Inhibition": 22}, {"compound": "O[C@@H]1CCCC[C@H]1N1CCC(c2ccccc2)CC1", "note": "[vesamicol hcl]", "Percent Inhibition": 52}, {"compound": "c1cncc([C@@H]2CCCN2)c1", "note": "[nornicotine]", "Percent Inhibition": 50}, {"compound": "salbutamol sulfate", "Percent Inhibition": 70}, {"compound": "Oc1ccc2c3c1O[C@H]1c4[nH]c5ccccc5c4C[C@@]4(O)[C@@H](C2)N(CC2CC2)CC[C@]314", "note": "[naltrindole]", "Percent Inhibition": 66}, {"compound": "Cc1ncc([N+](=O)[O-])n1CC(O)CCl", "note": "(stereo not shown) [orinidazole]", "Percent Inhibition": 9}, {"compound": "COc1cc(CNC(=O)CCCC/C=C/C(C)C)ccc1O", "note": "[capsaicin]", "Percent Inhibition": 62}, {"compound": "CN1C(C(=O)Nc2ccccn2)=C(O)c2ccccc2S1(=O)=O", "note": "[piroxicam]", "Percent Inhibition": 9.5}, {"compound": "Nc1nc(O)c2ncn(CCC(CO)CO)c2n1", "note": "[peniciclovir]", "Percent Inhibition": 11}, {"compound": "COc1ccc(-c2oc3c(CC=C(C)C)c(O[C@@H]4O[C@H](CO)[C@@H](O)[C@H](O)[C@H]4O)cc(O)c3c(=O)c2O[C@@H]2O[C@@H](C)[C@H](O)[C@@H](O)[C@H]2O)cc1", "note": "[icariin]", "Percent Inhibition": 53}, {"compound": "CC(C(=O)O)c1ccc(CC2CCCC2=O)cc1", "note": "(stereo not shown) [loxoprofen]", "Percent Inhibition": 9}, {"compound": "CC(Oc1c(Cl)cccc1Cl)C1=NCCN1", "note": "(stereo not shown) [lofexidine]", "Percent Inhibition": 17}, {"compound": "CO[C@@H]1[C@@H](O[C@@H]2O[C@H](C)[C@@H](O[C@H]3C[C@@](C)(O)[C@@H](OC(=O)CC(C)C)[C@H](C)O3)[C@H](N(C)C)[C@H]2O)[C@@H](CC=O)C[C@@H](C)[C@@H](O)/C=C/C=C/C[C@@H](C)OC(=O)C[C@H]1O", "note": "[kitasamycin]", "Percent Inhibition": 16}, {"compound": "Cl.Nc1c2c(nc3c1CCC3)CCCC2", "note": "[amiridine, cyclopenta[b]quinolin-9-amine, 2,3,5,6,7,8-hexahydro-,monohydrochloride]", "Percent Inhibition": 40}, {"compound": "COc1cc(-c2ccc(=O)[nH]n2)ccc1OC(F)F", "note": "[pyridazinone, 6-[4-difluoromethoxy)-3-methoxyphenyl]]", "Percent Inhibition": 50}, {"compound": "OC[C@H]1O[C@@H](Oc2cc(O)cc(/C=C/c3ccc(O)cc3)c2)[C@H](O)[C@@H](O)[C@@H]1O", "note": "[piceid]", "Percent Inhibition": 11}]}, {"system": "Aβ40", "experiment": "Screen of NIH clinical collection compounds for reduction of Aβ40 in Tg2576 mES cell derived neurons (Aβ40 ELISA)", "type": "cell-based, mouse", "parameters": "Percent Inhibition: concentration or dose not given beside the values", "details": "Aβ40 lowering; high priority hits confirmed from independent compound sources; read-out: IC50", "method": "as §1, §2, §3", "units": {"IC50": "nM"}, "values": [{"compound": "Cl.Nc1c2c(nc3c1CCC3)CCCC2", "note": "[amiridine, cyclopenta[b]quinolin-9-amine, 2,3,5,6,7,8-hexahydro-,monohydrochloride]", "IC50": 2300}]}, {"system": "Aβ40", "experiment": "Screen of NIH clinical collection compounds for reduction of Aβ40 in Tg2576 mES cell derived neurons (Aβ40 ELISA)", "type": "cell-based, mouse", "parameters": "Percent Inhibition: concentration or dose not given beside the values", "details": "Mus musculus, Neuron", "method": "as §1, §2, §3", "units": {"IC50": "nM"}, "values": [{"compound": "COc1ccc(-c2oc3c(CC=C(C)C)c(O[C@@H]4O[C@H](CO)[C@@H](O)[C@H](O)[C@H]4O)cc(O)c3c(=O)c2O[C@@H]2O[C@@H](C)[C@H](O)[C@@H](O)[C@H]2O)cc1", "note": "[icariin]", "IC50": 5100}]}, {"system": "Aβ40", "experiment": "Screen of NIH clinical collection compounds for reduction of Aβ40 in Tg2576 mES cell derived neurons (Aβ40 ELISA)", "type": "cell-based, mouse", "parameters": "Percent Inhibition: concentration or dose not given beside the values", "details": "Mus musculus, Neuron; Aβ40 lowering; high priority hits confirmed from independent compound sources; read-out: IC50", "method": "as §1, §2, §3", "units": {"IC50": "nM"}, "values": [{"compound": "NNCCc1ccccc1", "note": "[phenelzine sulfate]", "IC50": 2500}]}]}
